Literature values as cited in patent US9526701B2, “Sustained drug release and improved product stability using non-covalent particle coating methods” (priority 2011, dated 2016).

Conditions: for half life in the blood: following administration; for bioavailability: oral administration

SMILES	half life in the blood	bioavailability
N[C@@H](Cc1cc(I)c(Oc2ccc(O)c(I)c2)c(I)c1)C(=O)O [Example T3, 3,5,3′-triiodo-L-thyronine]	20 to 30 h	greater than 95%
N[C@@H](Cc1cc(I)c(Oc2cc(I)c(O)c(I)c2)c(I)c1)C(=O)O [Example T4, 3,5,3′,5′-tetraiodo-L-thyronine]	greater than 7 days	45-65%
